Measured values reported in ChEMBL document CHEMBL2073973, “Mitotracker green is a P-glycoprotein substrate” (Biosci Rep, 2003).

Biological target: ATP-dependent translocase ABCB1 (Homo sapiens, UniProt P08183)
Assay: TP_TRANSPORTER: cell accumulation in Lucena-1 cells
Assay type: functional, cell-based

Chain of ATP-dependent translocase ABCB1 (P08183 whole entry): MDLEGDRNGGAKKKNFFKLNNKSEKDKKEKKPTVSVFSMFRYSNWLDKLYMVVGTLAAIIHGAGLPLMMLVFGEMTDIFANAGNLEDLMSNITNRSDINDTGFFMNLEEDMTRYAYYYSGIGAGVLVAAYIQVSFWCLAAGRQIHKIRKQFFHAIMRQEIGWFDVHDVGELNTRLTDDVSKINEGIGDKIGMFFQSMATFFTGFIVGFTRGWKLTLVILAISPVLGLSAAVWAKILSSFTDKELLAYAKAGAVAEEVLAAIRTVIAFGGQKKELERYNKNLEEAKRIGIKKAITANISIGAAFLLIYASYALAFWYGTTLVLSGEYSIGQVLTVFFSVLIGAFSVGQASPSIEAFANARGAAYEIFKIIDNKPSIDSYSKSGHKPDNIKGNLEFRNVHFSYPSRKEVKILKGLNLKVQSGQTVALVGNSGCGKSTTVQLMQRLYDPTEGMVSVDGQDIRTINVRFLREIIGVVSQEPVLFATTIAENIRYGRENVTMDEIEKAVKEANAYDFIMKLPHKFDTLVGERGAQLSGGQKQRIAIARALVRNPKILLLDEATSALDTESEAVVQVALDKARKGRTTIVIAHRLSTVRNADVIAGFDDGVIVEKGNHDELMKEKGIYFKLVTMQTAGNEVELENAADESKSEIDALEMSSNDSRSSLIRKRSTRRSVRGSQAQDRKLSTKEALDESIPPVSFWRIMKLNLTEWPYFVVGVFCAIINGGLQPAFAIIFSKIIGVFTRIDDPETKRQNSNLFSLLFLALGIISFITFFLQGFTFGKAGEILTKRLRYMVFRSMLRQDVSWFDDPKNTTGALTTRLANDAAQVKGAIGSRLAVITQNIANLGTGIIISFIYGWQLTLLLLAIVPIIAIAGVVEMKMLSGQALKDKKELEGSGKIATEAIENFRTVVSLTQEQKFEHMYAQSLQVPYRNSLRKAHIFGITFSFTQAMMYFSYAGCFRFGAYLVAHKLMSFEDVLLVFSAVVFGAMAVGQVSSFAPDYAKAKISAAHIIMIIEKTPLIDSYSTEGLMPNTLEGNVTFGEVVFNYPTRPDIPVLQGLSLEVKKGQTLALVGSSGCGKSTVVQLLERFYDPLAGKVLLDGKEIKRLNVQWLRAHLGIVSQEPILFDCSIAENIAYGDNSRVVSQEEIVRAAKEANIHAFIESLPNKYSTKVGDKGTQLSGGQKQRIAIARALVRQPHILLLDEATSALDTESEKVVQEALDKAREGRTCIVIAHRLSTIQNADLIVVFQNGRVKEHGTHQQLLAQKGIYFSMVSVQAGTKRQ

Activity: substrate [+]
SMILES: CN1C(=CC=Cc2n(Cc3ccc(CCl)cc3)c3cc(Cl)c(Cl)cc3[n+]2Cc2ccc(CCl)cc2)Oc2ccccc21.[Cl-] [MITOTRACKER GREEN]
